By IC50 is commonly meant the concentration that gives 50% inhibition.

The structures appear in SMILES notation.

This experiment deals with hCRTH2 receptor (Homo sapiens (Human), UniProt Q9Y5Y4). As to the kind of experiment: hCRTH2 receptor membranes radioligand (3H-PGD2) displacement assay. The class given is binding. The settings on record: 3H-PGD2 radioligand displacement, HEK293-hCRTH2 membranes. The gist of the method: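 Compound was first mixed with buffer, then 3H-PGD2 was added at 2.5 nM, and the reaction was started with hCRTH2 membranes from HEK293 cells at 20 μg/well. After 90 min at room temperature, mixtures were filtered and washed with ice-cold buffer, and retained radioactivity was counted.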
(In general: Loss of bound radioactivity is the signal in a displacement assay; it reports binding, not function.)

Chain of hCRTH2 receptor (Q9Y5Y4 whole entry): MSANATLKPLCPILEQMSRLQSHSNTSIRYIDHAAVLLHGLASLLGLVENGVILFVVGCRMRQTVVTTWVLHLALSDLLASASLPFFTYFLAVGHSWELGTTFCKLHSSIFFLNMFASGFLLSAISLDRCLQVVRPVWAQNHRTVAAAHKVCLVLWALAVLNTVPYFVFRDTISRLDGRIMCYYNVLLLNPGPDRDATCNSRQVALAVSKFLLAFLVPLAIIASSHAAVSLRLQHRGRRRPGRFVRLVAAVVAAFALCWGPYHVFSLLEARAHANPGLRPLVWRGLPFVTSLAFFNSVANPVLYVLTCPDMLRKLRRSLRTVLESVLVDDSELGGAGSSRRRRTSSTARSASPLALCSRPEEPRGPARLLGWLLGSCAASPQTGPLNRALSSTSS

Compound `CC(C)Oc1ccc(CC(=O)O)cc1-c1ccc(F)c2c1CN(C(=O)C[C@@H](C)c1ccccc1)CC2` [Example 292, {3-[5-Fluoro-2-((R)-3-phenyl-butyryl)-1,2,3,4-tetrahydro-isoquinolin-8-yl]-4-isopropoxy-phenyl}-acetic acid] showed an IC50 of 2.5 nM.
Regarding `CCOc1ccc(CC(=O)O)cc1-c1ccc(F)c2c1CN(C(=O)CC1CCc3ccccc31)CC2` (racemic) [Example 219], the IC50 came out at 9.1 nM.
The value for `COc1ccc(CC(=O)O)cc1-c1ccc(F)c2c1CN(C(=O)[C@@H]1C[C@H]1c1ccc(Cl)cc1)CC2` (racemic) [Example 2, (±)-(3-{2-[trans-2-(4-Chloro-phenyl)-cyclopropanecarbonyl]-5-fluoro-1,2,3,4-tetrahydro-isoquinolin-8-yl}-4-methoxy-phenyl)-acetic acid] was 1.93 nM.
Compound `CCOCC(=O)N1CCc2c(F)ccc(-c3cc(CC(=O)O)ccc3OC)c2C1` [Example 46, {3-[2-(2-Ethoxy-acetyl)-5-fluoro-1,2,3,4-tetrahydro-isoquinolin-8-yl]-4-methoxy-phenyl}-acetic acid] had an IC50 of 774 nM.
The value for `CC(C)Oc1ccc(CC(=O)O)cc1-c1ccc(F)c2c1CN(C(=O)CC1OCCc3ccccc31)CC2` (racemic) [Example 297] was 1.9 nM; that for `O=C(O)Cc1ccc(OC2CC2)c(-c2ccc(F)c3c2CN(C(=O)OCc2ccccc2)CC3)c1` [Example 430, 8-(5-Carboxymethyl-2-cyclopropoxy-phenyl)-5-fluoro-3,4-dihydro-1H-isoquinoline-2-carboxylic acid benzyl ester] was 14.9 nM.
In the case of `Cc1cccc(C(C)CC(=O)N2CCc3c(F)ccc(-c4cc(CC(=O)O)ccc4OC(C)C)c3C2)n1` (racemic) [Example 294] it was 3.2 nM; in that of `CC(C)Oc1ccc(CC(=O)O)cc1-c1ccc(F)c2c1CN(C(=O)CC(C)(C)c1ccccc1)CC2` [Example 291, {3-[5-Fluoro-2-(3-methyl-3-phenyl-butyryl)-1,2,3,4-tetrahydro-isoquinolin-8-yl]-4-isopropoxy-phenyl}-acetic acid], 5.9 nM.
Turning to `COc1ccc(CC(=O)O)cc1-c1ccc(F)c2c1CN(C(=O)CC1(C)CCCc3ccccc31)CC2` (racemic) [Example 239], the IC50 is 28.4 nM.
In the case of `COc1ccc(CC(=O)O)cc1-c1ccc(F)c2c1CN(C(=O)/C=C/c1ccccc1)CC2` [Example 85, (3-{5-Fluoro-2-[(E)-(3-phenyl-acryloyl)]-1,2,3,4-tetrahydro-isoquinolin-8-yl}-4-methoxy-phenyl)-acetic acid] it was 35.8 nM; in that of `CC(C)(C)Oc1ccc(CC(=O)O)cc1-c1ccc(F)c2c1CN(C(=O)[C@@H]1C[C@H]1c1ccccc1)CC2` [Example 428, {4-tert-Butoxy-3-[5-fluoro-2-((1R,2R)-2-phenyl-cyclopropanecarbonyl)-1,2,3,4-tetrahydro-isoquinolin-8-yl]-phenyl}-acetic acid], 3.7 nM; in that of `CCCNC(=O)N1CCc2c(F)ccc(-c3cc(CC(=O)O)ccc3OC)c2C1` [Example 137, [3-(5-Fluoro-2-propylcarbamoyl-1,2,3,4-tetrahydro-isoquinolin-8-yl)-4-methoxy-phenyl]-acetic acid], 764 nM.
The value for `COc1ccc(/C=C/C(=O)N2CCc3c(F)ccc(-c4cc(CC(=O)O)ccc4OC)c3C2)cn1` [Example 86, (3-{5-Fluoro-2-[(E)-3-(6-methoxy-pyridin-3-yl)-acryloyl]-1,2,3,4-tetrahydro-isoquinolin-8-yl}-4-methoxy-phenyl)-acetic acid] was 70.5 nM; that for `CC(CC(=O)N1CCc2c(F)ccc(-c3ccc(CC(=O)O)cc3OCC(F)(F)F)c2C1)c1ccccn1` (racemic) [Example 288] was 10 nM.
Regarding `CCOc1cc(CC(=O)O)ccc1-c1ccc(F)c2c1CN(C(=O)OCCC(C)C)CC2` [Example 393, 8-(4-Carboxymethyl-2-ethoxy-phenyl)-5-fluoro-3,4-dihydro-1H-isoquinoline-2-carboxylic acid 3-methyl-butyl ester], the IC50 was 49.4 nM.

Source of the values: patent US9255090B2, “Heterocyclyl derivatives and their use as prostaglandin D2 receptor modulators” (Actelion Pharmaceuticals Ltd., priority 2012, dated 2016).
